Assay results as given in the supplement of paper PMC11061612.

Columns and labels:
Test in all cases: combination Emax (second highest fraction inhibited in the dose matrix, 72 h); higher = more inhibition; extreme values may be limits of the assay
[1] = tested on: MOG-G-UVW (Low Grade Glioma)
How it was run: (§1)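 Cell lines grown in DMEM/F12 or RPMI with 10% FBS were plated in 1536-well plates and held 24 hours at 37°C, 5% CO2 before 72 hours of exposure to two-drug dose matrices, with DMSO typically at 0.2%. CellTiter-Glo 2.0 luminescence gave viability, which was converted to inhibition. Vehicle wells were set to 0 and blank wells to 1. Combination Emax is the second-highest inhibition in the matrix, and Bliss excess is the observed combination effect minus the expected EA + EB − EA·EB, where EA and EB are the single-agent effects.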

[2] = tested on: SKN (Other Solid Carcinomas)
How it was run: as §1

[3] = tested on: SW872 (Other Solid Carcinomas)
How it was run: as §1

[4] = tested on: LC-1-sq (Squamous Cell Lung Carcinoma)
How it was run: as §1

| SMILES | combination Emax [1] | combination Emax [2] | combination Emax [3] | combination Emax [4] |
| --- | --- | --- | --- | --- |
| NC1(C(=O)N[C@@H](CCO)c2ccc(Cl)cc2)CCN(c2ncnc3[nH]ccc23)CC1 [Capivasertib] + COc1nnc2ccc(N3CCC(c4ccc(OCCN5CCN(C)C(=O)[C@H]5C)cc4)CC3)nn12 [AZD5153] (first compound max 10 µM, 7x7, partner max 1 µM) | 0.835 | 0.725 | 0.553 | 0.815 |
| Cc1c2c(nn1C)CSCc1cc(n(C)n1)CSc1cc(c3ccccc3c1)OCCCc1c(C(=O)O)n(C)c3c-2c(Cl)ccc13 [AZD5991] + CN(C)CCCOc1ccc(-c2ccc3ncc4c(c3c2)n(C2CCOCC2)c(=O)n4C)cn1 [AZD0156] (first compound max 1 µM, 7x7, partner max 1 µM) | 0.247 | 0.278 | 0.226 | 0.258 |
| COc1nnc2ccc(N3CCC(c4ccc(OCCN5CCN(C)C(=O)[C@H]5C)cc4)CC3)nn12 [AZD5153] + CCN(CCO)CCCOc1ccc2c(Nc3cc(CC(=O)Nc4cccc(F)c4)[nH]n3)ncnc2c1 [AZD2811] (first compound max 1 µM, 7x7, partner max 1 µM) | 0.802 | 0.608 | 0.578 | 0.609 |
| Cc1c2c(nn1C)CSCc1cc(n(C)n1)CSc1cc(c3ccccc3c1)OCCCc1c(C(=O)O)n(C)c3c-2c(Cl)ccc13 [AZD5991] + C1CN(CCC1(C(=O)N[C@@H](CCO)C2=CC=C(C=C2)Cl)N)C3=NC=NC4=C3C=CN4 [Capivasertib] (first compound max 1 µM, 7x7, partner max 3 µM) | 0.444 | 0.455 | 0.282 | 0.217 |
| CC(=O)c1c(C)c2cnc(Nc3ccc(N4CCNCC4)cn3)nc2n(C2CCCC2)c1=O [Palbociclib] + Cn1cnc2c(F)c(Nc3ccc(Br)cc3Cl)c(C(=O)NOCCO)cc21 [Selumetinib] (first compound max 10 µM, 7x7, partner max 10 µM) | 0.523 | 0.349 | 0.169 | 0.235 |
| COc1cccc(OCCCN)c1-c1cc(Nc2cnc(C#N)cn2)n[nH]1 [Prexasertib] + C=CCn1c(=O)c2cnc(Nc3ccc(N4CCN(C)CC4)cc3)nc2n1-c1cccc(C(C)(C)O)n1 [AZD1775] (first compound max 1 µM, partner max 1 µM) | 0.943 | 0.488 | 0.933 | 0.986 |
| Cn1cnc2c(F)c(Nc3ccc(Br)cc3Cl)c(C(=O)NOCCO)cc21 [Selumetinib] + CCN(CCO)CCCOc1ccc2c(Nc3cc(CC(=O)Nc4cccc(F)c4)[nH]n3)ncnc2c1 [AZD2811] (first compound max 10 µM, 7x7, partner max 1 µM) | 0.642 | 0.255 | 0.285 | 0.303 |
| CCc1c2c(nc3ccc(O)cc13)-c1cc3c(c(=O)n1C2)COC(=O)[C@]3(O)CC [SN-38] + CN(C)CCCOc1ccc(-c2ccc3ncc4c(c3c2)n(C2CCOCC2)c(=O)n4C)cn1 [AZD0156] (first compound max 0.3 µM, 7x7, partner max 1 µM) | 0.854 | 0.412 | 0.98 | 0.442 |
| CN(C)CCCOc1ccc(-c2ccc3ncc4c(c3c2)n(C2CCOCC2)c(=O)n4C)cn1 [AZD0156] + C[C@@H]1COCCN1C2=NC(=NC(=C2)C3(CC3)[S@](=N)(=O)C)C4=C5C=CNC5=NC=C4 [AZD6738] (first compound max 1 µM, 7x7, partner max 10 µM) | 0.816 | 0.344 | 0.552 | 0.877 |
| COc1nnc2ccc(N3CCC(c4ccc(OCCN5CCN(C)C(=O)[C@H]5C)cc4)CC3)nn12 [AZD5153] + CC1(C)CCC(CN2CCN(c3ccc(C(=O)NS(=O)(=O)c4ccc(NCC5CCOCC5)c([N+](=O)[O-])c4)c(Oc4cnc5[nH]ccc5c4)c3)CC2)=C(c2ccc(Cl)cc2)C1 [Venetoclax] (first compound max 1 µM, 7x7, partner max 1 µM) | 0.715 | 0.594 | 0.561 | 0.603 |
| CCN(CCO)CCCOc1ccc2c(Nc3cc(CC(=O)Nc4cccc(F)c4)[nH]n3)ncnc2c1 [AZD2811] + C=CCn1c(=O)c2cnc(Nc3ccc(N4CCN(C)CC4)cc3)nc2n1-c1cccc(C(C)(C)O)n1 [AZD1775] (first compound max 1 µM, partner max 1 µM) | 0.771 | 0.236 | 0.289 | 0.864 |
| CC1(C)CCC(CN2CCN(c3ccc(C(=O)NS(=O)(=O)c4ccc(NCC5CCOCC5)c([N+](=O)[O-])c4)c(Oc4cnc5[nH]ccc5c4)c3)CC2)=C(c2ccc(Cl)cc2)C1 [Venetoclax] + C1CN(CCC1(C(=O)N[C@@H](CCO)C2=CC=C(C=C2)Cl)N)C3=NC=NC4=C3C=CN4 [Capivasertib] (first compound max 1 µM, 7x7, partner max 3 µM) | 0.455 | 0.42 | 0.152 | 0.198 |
| CC1(C)CCC(CN2CCN(c3ccc(C(=O)NS(=O)(=O)c4ccc(NCC5CCOCC5)c([N+](=O)[O-])c4)c(Oc4cnc5[nH]ccc5c4)c3)CC2)=C(c2ccc(Cl)cc2)C1 [Venetoclax] + CCN(CCO)CCCOc1ccc2c(Nc3cc(CC(=O)Nc4cccc(F)c4)[nH]n3)ncnc2c1 [AZD2811] (first compound max 1 µM, 7x7, partner max 1 µM) | 0.636 | 0.242 | 0.142 | 0.226 |
